Series [1] concerns the target T1, Adenosine receptor A2a (Homo sapiens, UniProt P29274).
Series [2] in a line: in vivo. Particulars: plasma.
Description: Cmax in plasma (unknown origin)
Series [3] deals with T2, Adenosine receptor A1 (Homo sapiens, UniProt P30542).
T2 sequence (P30542 whole entry): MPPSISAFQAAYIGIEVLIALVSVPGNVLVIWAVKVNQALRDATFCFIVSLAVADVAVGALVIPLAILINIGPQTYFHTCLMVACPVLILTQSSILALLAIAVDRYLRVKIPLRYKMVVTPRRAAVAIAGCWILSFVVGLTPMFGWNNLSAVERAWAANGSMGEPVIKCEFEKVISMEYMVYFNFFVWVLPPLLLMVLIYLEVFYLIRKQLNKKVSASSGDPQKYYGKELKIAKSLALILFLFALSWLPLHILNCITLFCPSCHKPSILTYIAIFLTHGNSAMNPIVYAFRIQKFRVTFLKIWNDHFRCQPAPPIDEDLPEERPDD
Description: Binding affinity to human adenosine A1 receptor

In series [4] the target is T1, Adenosine receptor A2a. The source holds these as a separate data set.
Description: Antagonist activity at human adenosine A2A receptor expressed in CHO cells assessed as inhibition of NECA-induced cAMP production measured by scintillation counter assay
For series [5], the target named is T3, Adenosine receptor A3 (Homo sapiens, UniProt P0DMS8).
T3 sequence (P0DMS8 whole entry): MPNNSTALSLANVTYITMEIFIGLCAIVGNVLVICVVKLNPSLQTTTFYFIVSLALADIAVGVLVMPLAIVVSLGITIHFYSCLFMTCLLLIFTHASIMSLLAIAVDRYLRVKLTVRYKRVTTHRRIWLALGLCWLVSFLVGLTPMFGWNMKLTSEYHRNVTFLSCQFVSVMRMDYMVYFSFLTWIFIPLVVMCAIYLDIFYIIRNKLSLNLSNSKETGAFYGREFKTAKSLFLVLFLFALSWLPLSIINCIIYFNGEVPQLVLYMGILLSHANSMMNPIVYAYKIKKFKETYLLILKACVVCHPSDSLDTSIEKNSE
Description: biochemical.
Description: Displacement of [3H]NECA from human adenosine A3 receptor expressed in HeLa cells measured by scintillation counting assay

Series [6] addresses T3, Adenosine receptor A3.
Description: Antagonist activity at human adenosine A3 receptor expressed in CHO cells assessed as cAMP level measured by enzyme immunoassay
Series [7] in a line: physchem. Particulars: simulated intestinal fluid.
Description: Solubility of the compound in simulated intestinal fluid
Series [8] is described as follows: physchem. To be noted: simulated gastric fluid.
Description: Solubility of the compound in simulated gastric fluid
Series [9] is described as follows: physchem. Particulars: phosphate buffered saline.
Description: Solubility of the compound in phosphate buffered saline
A short description of series [10]: physchem. Particulars: water.
Description: Solubility of the compound in water
In series [11] the target is T4, Amine oxidase [flavin-containing] B (Homo sapiens, UniProt P27338).
T4 sequence (P27338 whole entry): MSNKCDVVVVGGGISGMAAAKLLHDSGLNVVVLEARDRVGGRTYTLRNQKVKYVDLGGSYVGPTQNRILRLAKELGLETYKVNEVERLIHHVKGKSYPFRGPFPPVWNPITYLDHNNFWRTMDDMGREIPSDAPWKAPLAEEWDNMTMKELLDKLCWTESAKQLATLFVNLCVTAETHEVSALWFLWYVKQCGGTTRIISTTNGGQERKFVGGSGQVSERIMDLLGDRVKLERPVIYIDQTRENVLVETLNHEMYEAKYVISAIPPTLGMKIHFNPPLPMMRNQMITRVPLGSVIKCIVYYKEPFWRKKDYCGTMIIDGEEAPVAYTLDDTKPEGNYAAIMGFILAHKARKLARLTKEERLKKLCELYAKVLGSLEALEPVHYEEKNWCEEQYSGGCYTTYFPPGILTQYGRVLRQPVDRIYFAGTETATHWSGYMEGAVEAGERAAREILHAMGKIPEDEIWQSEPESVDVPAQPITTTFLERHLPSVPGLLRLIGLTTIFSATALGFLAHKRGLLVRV
Description: Inhibition of MAO-B (unknown origin)

Series [12] can be described thus: in vivo. Particulars: male, Wistar, rat.
Description: Half-life in male Wistar rat
For series [13], the target named is T2, Adenosine receptor A1. This is another data set of the same source.
Description: Antagonist activity at human adenosine A1A receptor
Series [14] has as its target T5, Adenosine receptor A2b (Homo sapiens, UniProt P29275).
T5 sequence (P29275 whole entry): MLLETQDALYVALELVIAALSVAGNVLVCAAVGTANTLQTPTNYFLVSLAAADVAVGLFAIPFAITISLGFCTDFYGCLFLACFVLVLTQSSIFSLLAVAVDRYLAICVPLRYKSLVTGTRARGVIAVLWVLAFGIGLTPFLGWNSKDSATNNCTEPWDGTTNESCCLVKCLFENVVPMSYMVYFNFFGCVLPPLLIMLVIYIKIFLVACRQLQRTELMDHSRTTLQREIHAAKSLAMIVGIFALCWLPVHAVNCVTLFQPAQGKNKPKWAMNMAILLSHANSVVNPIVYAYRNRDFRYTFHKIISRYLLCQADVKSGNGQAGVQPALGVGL
Description: Binding affinity to human adenosine A2B receptor

The target of series [15] is T5, Adenosine receptor A2b. Description: Antagonist activity at human adenosine A2B receptor expressed in HEK293 cells assessed as inhibition of cAMP production. The format is functional, cell-based.
For series [16], the target named is T5, Adenosine receptor A2b. This is another data set of the same source.
Description: Antagonist activity at human adenosine A2B receptor expressed in mouse NIH/3T3 cells assessed as inhibition of NECA-induced IL-6 release
The nature of series [17]: in vitro. Particulars: human, liver microsomes.
The nature of series [18]: in vitro. Particulars: human, Caco-2.
Description: Apparent permeability in human Caco-2 cells
Series [19] addresses T2, Adenosine receptor A1. Description: Displacement of [3H]CCPA from human adenosine […] receptor expressed in CHO cells measured by radioligand competition assay. Format: cell-based. In general terms: Displacement assays read how much labelled ligand stays bound in the presence of the test substance.
The target in series [20] is T1, Adenosine receptor A2a. Briefly: Displacement of [3H]NECA from human adenosine A2A receptor expressed in CHO cells measured by radioligand competition assay. Format: cell-based.
Series [21] is described as follows: in vitro. To be noted: rat, liver microsomes. (Microsomes from liver hold many membrane-bound enzymes, among them those of drug oxidation.)
Description: Stability in rat liver microsomes incubating after 60 mins
The species entered for series [22] is Rattus norvegicus. Description: animal or person. To be noted: po, 4 h.
Description: Reversal of haloperidol-induced catalepsy in rat administered orally and measured after 4 hrs
The target of series [23] is T1, Adenosine receptor A2a. Briefly: biochemical.
Description: Displacement of [3H]ZM-241385 from human adenosine A2A receptor expressed in HEK293 cells incubated for 60 mins and measured by scintillation counting assay
The species named for series [24] is Rattus norvegicus. Briefly: animal or person. To be noted: po.
Description: Antiparkinson's activity in L-DOPA induced dyskinesia rat model assessed as reduction in contralateral rotations administered orally
The nature of series [25]: in vivo. To be noted: male, Wistar, rat, iv, 3 mg/kg.
Description: Half-life in male Wistar rat at 3 mg/kg, iv
Series [26] concerns the target T1, Adenosine receptor A2a. Description: Binding affinity to human adenosine A2A receptor expressed in HEK293 cells measured by radioligand based assay. The format is cell-based.

Values after ≈ are worked out from the molar mass of the structure shown.

The text below walks through data of ChEMBL document CHEMBL5126505, “Adenosine receptor antagonists: Recent advances and therapeutic perspective” (Eur J Med Chem, 2022).

What is called Ki is the equilibrium dissociation constant of an inhibitor or competing ligand from its target. What is called Cmax is the maximum level reached in the sampled fluid or tissue. One may read the solubility as how much of the substance goes into solution per volume. A higher solubility goes with a readily soluble substance. A word on the IC50: it is the concentration that inhibits the measured activity by half. As a reminder, the half-life is how long it takes for the measured level to halve. One may read the Papp as a coefficient for how fast a substance crosses the barrier. A low value points to slow passage. For orientation: fraction remaining means what is left of the initial amount, in per cent. As a reminder, the ED50 is the dose at which the effect has come halfway, by size or by number of responders. Low values mean greater potency, high ones weaker potency.

T1 sequence (P29274 whole entry): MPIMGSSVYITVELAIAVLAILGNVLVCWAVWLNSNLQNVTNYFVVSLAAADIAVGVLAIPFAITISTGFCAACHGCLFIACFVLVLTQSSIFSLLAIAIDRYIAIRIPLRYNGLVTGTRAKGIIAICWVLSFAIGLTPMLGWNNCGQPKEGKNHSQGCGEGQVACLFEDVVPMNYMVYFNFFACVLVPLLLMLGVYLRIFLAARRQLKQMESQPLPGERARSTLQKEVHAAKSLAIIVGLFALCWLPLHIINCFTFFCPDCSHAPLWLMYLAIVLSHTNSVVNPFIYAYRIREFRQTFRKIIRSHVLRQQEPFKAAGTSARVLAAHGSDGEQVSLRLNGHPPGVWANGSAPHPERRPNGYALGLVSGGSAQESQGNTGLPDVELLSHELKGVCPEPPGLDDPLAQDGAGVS

As for `Cc1ccc(-c2nc(N)c3cc(Cc4ccccc4)sc3n2)o1`, the Ki is 298 nM at Adenosine receptor A2a [1] and 11.1 nM at Adenosine receptor A1 [3]. In “in vivo [2]”, this compound displayed a Cmax of 5 µM.
The compound `Nc1nc(CCCc2ccccc2)nc2cn(-c3ccccc3)nc12` came in with a Ki at Adenosine receptor A2a [4] of 423 nM.
For `CCn1nnc([C@H]2O[C@@H](n3cnc4c(N)nc(NC(C)Cc5ccc(OC)cc5)nc43)[C@H](O)[C@@H]2O)n1` (some centres not stated), the values for the Ki at Adenosine receptor A3 [5] and on Adenosine receptor A3 [6] were 13 nM and 6 nM, respectively.
Take `OC[C@@H]1CCCN1c1ncnc2sc(Nc3cccc(Br)c3)nc12`: the solubility was 3500 µg/mL (≈ 8.61 mM) in “physchem [7]”, 3500 µg/mL (≈ 8.61 mM) in “physchem [8]”, 4800 µg/mL (≈ 11.8 mM) in “physchem [9]” and 4300 µg/mL (≈ 10.6 mM) in the series “physchem [10]”.
Turning to `Cn1c(=O)c2c(nc(/C=C/c3cccc(Br)c3)n2C)n(C)c1=O`, affinity on Adenosine receptor A2a [1] was put at a Ki of 28.4 nM. In [11], this compound had an IC50 of 112 nM.
`CCCn1c(Oc2ccc(F)c(F)c2)nc2nc(C3CCCC3)[nH]c2c1=O` showed a half-life in “in vivo [12]” of 2 h. This compound also gave a Ki on Adenosine receptor A1 [13] of 2 nM.
Turning to `CCCn1c(=O)c2[nH]c(-c3cnn(CC#Cc4cccc(OC(F)(F)F)c4)c3)nc2n(CCC)c1=O`, the values for the Ki at Adenosine receptor A2b [14] and at Adenosine receptor A2b [15] were 13 nM and 8 nM, respectively. The compound further gave an IC50 on Adenosine receptor A2b [16] of 107 nM.
`Nc1cc(-c2ccco2)c2oc(-c3ccco3)nc2c1` showed a half-life at 0.1 µM in “in vitro [17]” of over 0.683 h. The Papp in “in vitro [18]” was 77 ×10⁻⁶ cm/s.
For `O=c1oc2c(O)cccc2cc1-c1ccc(Br)cc1`, the Ki on Adenosine receptor A1 [19] turned out to be 2400 nM; at Adenosine receptor A2a [20] it was 12100 nM.
Compound `CCCN1CSc2c1ncn(NC(N)=O)c2=N` yielded an amount remaining at 1 h in “in vitro [21]” of 86%.
Turning to `COCCOc1ccc(N2CCN(CCn3c(=O)n(C)c4c3nc(N)n3nc(-c5nccs5)nc43)CC2)c(F)c1`, the ED50 came to 4.49 mg/kg in the series filed under Rattus norvegicus [22] and 1.2 mg/kg in the series listed under Rattus norvegicus [24]. The compound further came in with a Ki on Adenosine receptor A2a [23] of 0.4 nM. Further, in the series “in vivo [25]”, the half-life is 1 h.
On to `Nc1nc(NCCc2ccc(O)cc2)nc(Nc2nc(-c3ccc(F)cc3)cs2)n1`, for which the Ki on Adenosine receptor A2a [26] came to 1.5 nM.
